Experimental data reported in patent US20230146455A1, “TREATMENT OF INFLAMMATORY DISEASES WITH PEPTIDES AND PHARMACEUTICAL COMPOSITIONS” (Yuyu Pharma, Inc., priority 2020, published 2023).
Values joined by “and” are separate entries in the source; they are usually repeats but may differ in a detail not shown here. Identical values can stand only once. Where a SMILES comes first, the peptide text is derived from it. [ ]: non-standard residue; d: D form. Hyp = O=C(O)[C@@H]1C[C@@H](O)CN1

Legend:
IL-6 = assay: Example 9 Luminex, LPS hPBMCs: IL-6; format: cell-based, human; conditions: Bead IL-6, PBMC without LPS
Experimental: (§1) Treatment Human PBMCs were pretreated with YY-101, YDE-011 and YDE-043 or reference compound; Xiidra® at various concentration (ranging from 1 nM to 100 uM) for 2 h before stimulation. An equal volume of 0.5% DMSO was used as a vehicle control. Then, the cells were treated with LPS at 5 ug/ml. The supernatants from treated cells were harvested at 24 h and placed in a 96 well for Luminex cytokine & chemokine profiling using a Luminex 200 multiplex assay (Luminex; R&D system, USA).
(§2) The main study arm with triplicate wells per group in a 24-well plate: • 1. Blank • 2. PBMC: 0.5% DMSO • 3. PBMC+LPS (5 ug/ml) • 4. PBMC+YY-101 100 uM • 5. PBMC+YY-101 10 uM • 6. PBMC+YY-101 1 uM • 7. PBMC+YY-101 0.1 uM • 8. PBMC+YY-101 0.01 uM • 9. PBMC+LPS (5 ug/ml)+Xiidra®100 uM • 10. PBMC+LPS (5 ug/ml)+Xiidra® 10 uM • 11. PBMC+LPS (5 ug/ml)+Xiidra® 1 uM • 12. PBMC+LPS (5 ug/ml)+Xiidra®0.1 uM • 13. PBMC+LPS (5 ug/ml)+Xiidra®0.01 uM • 14. PBMC+LPS (5 ug/ml)+Xiidra®0.001 uM • 15. PBMC+LPS (5 ug/ml)+YY-101 100 uM • 16. PBMC+LPS (5 ug/ml)+YY-101 10 uM • 17. PBMC+LPS (5 ug/ml)+YY-101 1 uM • 18. PBMC+LPS (5 ug/ml)+YY-101 0.1 uM • 19. PBMC+LPS (5 ug/ml)+YY-101 0.01 uM • 20. PBMC+LPS (5 ug/ml)+YY-101 0.001 uM • 21. PBMC+LPS (5 ug/ml)+YDE-011 100 uM • 22. PBMC+LPS (5 ug/ml)+YDE-011 10 uM • 23. PBMC+LPS (5 ug/ml)+YDE-011 1 uM • 24. PBMC+LPS (5 ug/ml)+YDE-011 0.1 uM • 25. PBMC+LPS (5 ug/ml)+YDE-011 0.01 uM • 26. PBMC+LPS (5 ug/ml)+YDE-011 0.001 uM • 27. PBMC+LPS (5 ug/ml)+YDE-043 100 uM • 28. PBMC+LPS (5 ug/ml)+YDE-043 10 uM • 29. PBMC+LPS (5 ug/ml)+YDE-043 1 uM • 30. PBMC+LPS (5 ug/ml)+YDE-043 0.1 uM • 31. PBMC+LPS (5 ug/ml)+YDE-043 0.01 uM • 32. PBMC+LPS (5 ug/ml)+YDE-043 0.001 uM
(§3) Multiplex assay was used to measure 30 cytokines and chemokines. The 1:2, 1:10 and 1:200 diluted cell supernatant and serial dilution of the standard were dispensed into a 96 well plate at 50 ul/well. Then, the pre-mixed cocktail of antibody-coated magnetic beads was dispensed at 50 ul/well and incubated at room temperature for 2 h in a horizontal orbital microplate shaker at 800±500 rpm. The beads were washed using a magnetic device to prevent loss. The biotin-antibody was dispensed in 50 ul of each well and incubated at room temperature for 1 h in a shaker at 800±500 rpm. After washing, streptavidin-PE was added at 50 ul/well and incubated at room temperature for 30 min in a shaker under the same conditions. Finally, after washing, wash buffer (100 ul/well) was added to the plate and incubated in a shaker for 2 min. The Luminex™ 200 setting were set according to the manufacturer's protocol. The data was calculated with a standard five-parameter logistic nonlinear regression analysis of the data (xPonent software 4.2, USA). The levels of cytokine/chemokine are normalized to the live cell counts (1×10^5 cells/mL) and presented as concentrations per mL (pg/mL or ng/mL).

IL-1 alpha = assay: Example 9 Luminex, LPS hPBMCs: IL-1 alpha; format: cell-based, human; conditions: for Concentration / conc/live cell: IL-1 alpha, replicates and Mean
Experimental: as §1, §2, §3

[1] = PBMC + LPS(5 ug/ml) + YY101 0.001 uM
[2] = PBMC + LPS(5 ug/ml) + YY101 0.001 uM, mean
[3] = PBMC + LPS(5 ug/ml) + YY101 0.01 uM
[4] = PBMC + LPS(5 ug/ml) + YY101 0.01 uM, mean
[5] = PBMC + LPS(5 ug/ml) + YY101 0.1 uM
[6] = PBMC + LPS(5 ug/ml) + YY101 0.1 uM, mean
[7] = PBMC + LPS(5 ug/ml) + YY101 1 uM
[8] = PBMC + LPS(5 ug/ml) + YY101 1 uM, mean
[9] = PBMC + LPS(5 ug/ml) + YY101 10 uM
[10] = PBMC + LPS(5 ug/ml) + YY101 10 uM, mean
[11] = PBMC + LPS(5 ug/ml) + YY101 100 uM
[12] = PBMC + LPS(5 ug/ml) + YY101 100 uM, mean
[13] = PBMC + YY101 0.01 uM (second group so labelled), no LPS
[14] = PBMC + YY101 0.01 uM (second group so labelled), no LPS, mean
[15] = PBMC + YY101 0.01 uM, no LPS, mean
[16] = PBMC + YY101 1 uM, no LPS, mean
[17] = PBMC + YY101 10 uM, no LPS, mean
[18] = PBMC + YY101 100 uM, no LPS, mean

`CC(C)C[C@H](NC(=O)CNC(=O)[C@H](CC(=O)O)NC(=O)[C@H](CCC(N)=O)NC(=O)CNC(=O)[C@@H]1C[C@@H](O)CN1)C(=O)N[C@@H](C)C(=O)NCC(=O)N1CCC[C@H]1C(=O)N[C@@H](CCCCN)C(=O)O` [YY-101] (H-[Hyp]GQDGLAGPK-OH; N-terminus and C-terminus assumed) was tested, and the MFI (IL-6; 10 uM, single replicates) was 27.3 and 3.3, the conc/live cell (IL-6; 10 uM, single replicates) was 137.6 pg/10^5 and 0.0 pg/10^5 and the Concentration (IL-6; 100 uM, Mean) was 524.7 pg/mL. For the same compound, the MFI (IL-6; 100 uM, Mean) was 15.8, the conc/live cell (IL-6; 100 uM, Mean) was 41.0 pg/10^5 and the Concentration (IL-6; 100 uM, single replicates) was 524.7 pg/mL. The MFI (IL-6; 100 uM, single replicates) was 19.8 and 11.8, the conc/live cell (IL-6; 100 uM, single replicates) was 82.0 pg/10^5 and 0.0 pg/10^5 and the Concentration (IL-1 alpha; [1]) was 426.2 pg/mL and 461.9 pg/mL and 419.9 pg/mL. For the same compound, the conc/live cell (IL-1 alpha; [1]) was 74.8 pg/10^5 and 65.1 pg/10^5 and 63.6 pg/10^5, the Concentration (IL-1 alpha; [2]) was 436.0 pg/mL and the conc/live cell (IL-1 alpha; [2]) was 67.8 pg/10^5. For the same compound, the Concentration (IL-1 alpha; [3]) was 506.1 pg/mL and 475.9 pg/mL and 484.7 pg/mL, the conc/live cell (IL-1 alpha; [3]) was 79.1 pg/10^5 and 79.3 pg/10^5 and 79.5 pg/10^5 and the Concentration (IL-1 alpha; [4]) was 488.9 pg/mL. The conc/live cell (IL-1 alpha; [4]) was 79.3 pg/10^5, the Concentration (IL-1 alpha; [5]) was 491.3 pg/mL and 481.8 pg/mL and 482.5 pg/mL and the conc/live cell (IL-1 alpha; [5]) was 79.2 pg/10^5 and 92.6 pg/10^5 and 77.8 pg/10^5. The Concentration (IL-1 alpha; [6]) was 485.2 pg/mL, the conc/live cell (IL-1 alpha; [6]) was 83.2 pg/10^5 and the Concentration (IL-1 alpha; [7]) was 451.2 pg/mL and 427.3 pg/mL and 434.3 pg/mL. The conc/live cell (IL-1 alpha; [7]) was 71.6 pg/10^5 and 60.2 pg/10^5 and 70.0 pg/10^5, the Concentration (IL-1 alpha; [8]) was 437.6 pg/mL and the conc/live cell (IL-1 alpha; [8]) was 67.3 pg/10^5. The Concentration (IL-1 alpha; [9]) was 473.3 pg/mL and 470.7 pg/mL and 483.6 pg/mL, the conc/live cell (IL-1 alpha; [9]) was 78.9 pg/10^5 and 73.6 pg/10^5 and 63.6 pg/10^5 and the Concentration (IL-1 alpha; [10]) was 475.9 pg/mL. For the same compound, the conc/live cell (IL-1 alpha; [10]) was 72.0 pg/10^5, the Concentration (IL-1 alpha; [11]) was 656.9 pg/mL and 616.5 pg/mL and 614.2 pg/mL and the conc/live cell (IL-1 alpha; [11]) was 104.3 pg/10^5 and 99.4 pg/10^5 and 122.8 pg/10^5. The Concentration (IL-1 alpha; [12]) was 629.2 pg/mL, the conc/live cell (IL-1 alpha; [12]) was 108.8 pg/10^5 and the Concentration (IL-1 alpha; [13]) was 1.0 pg/mL and 5.3 pg/mL. The conc/live cell (IL-1 alpha; [13]) was 0.2 pg/10^5 and 0.9 pg/10^5, the Concentration (IL-1 alpha; [14]) was 3.1 pg/mL and the conc/live cell (IL-1 alpha; [14]) was 0.6 pg/10^5. The Concentration (IL-1 alpha; PBMC + YY101 0.01 uM, no LPS) was 1.0 pg/mL and 5.3 pg/mL, the conc/live cell (IL-1 alpha; PBMC + YY101 0.01 uM, no LPS) was 0.2 pg/10^5 and 1.1 pg/10^5 and the Concentration (IL-1 alpha; [15]) was 3.1 pg/mL. The conc/live cell (IL-1 alpha; [15]) was 0.6 pg/10^5, the Concentration (IL-1 alpha; PBMC + YY101 1 uM, no LPS) was 5.3 pg/mL and the conc/live cell (IL-1 alpha; PBMC + YY101 1 uM, no LPS) was 1.0 pg/10^5. The Concentration (IL-1 alpha; [16]) was 5.3 pg/mL, the conc/live cell (IL-1 alpha; [16]) was 1.0 pg/10^5 and the Concentration (IL-1 alpha; PBMC + YY101 10 uM, no LPS) was 31.7 pg/mL and 7.1 pg/mL. The conc/live cell (IL-1 alpha; PBMC + YY101 10 uM, no LPS) was 5.0 pg/10^5 and 1.2 pg/10^5, the Concentration (IL-1 alpha; [17]) was 19.4 pg/mL and the conc/live cell (IL-1 alpha; [17]) was 3.1 pg/10^5. For the same compound, the Concentration (IL-1 alpha; PBMC + YY101 100 uM, no LPS) was 10.4 pg/mL and 5.3 pg/mL, the conc/live cell (IL-1 alpha; PBMC + YY101 100 uM, no LPS) was 1.6 pg/10^5 and 0.8 pg/10^5 and the Concentration (IL-1 alpha; [18]) was 7.9 pg/mL. The conc/live cell (IL-1 alpha; [18]) was 1.2 pg/10^5 and the “LPS-induced IL-1a levels (in words)” value (IL-1 alpha; at 100.iM, LPS 5 ug/mL 24 hrs) was “further increased”.
